Experimental data taken from publication PMC8041433 (Environmental Health Perspectives, 2021).
Where “and” joins values, the source holds several entries; their conditions need not be identical. Identical values can stand only once. Like-named read-outs stand apart in the source and are kept apart here.

Experiments:
recombinant human AChE [1] = molecular target: T1, recombinant human AChE (Homo sapiens, UniProt P22303); assay: biochemical
recombinant human AChE [2] = molecular target: T1, recombinant human AChE
[3] = molecular target: AChE in neural stem cell spheroids (Homo sapiens, UniProt P22303); assay: cell-based; settings: for IC50: potency (IC50)
AChE in neural stem cell spheroids, sequence (P22303 32-614): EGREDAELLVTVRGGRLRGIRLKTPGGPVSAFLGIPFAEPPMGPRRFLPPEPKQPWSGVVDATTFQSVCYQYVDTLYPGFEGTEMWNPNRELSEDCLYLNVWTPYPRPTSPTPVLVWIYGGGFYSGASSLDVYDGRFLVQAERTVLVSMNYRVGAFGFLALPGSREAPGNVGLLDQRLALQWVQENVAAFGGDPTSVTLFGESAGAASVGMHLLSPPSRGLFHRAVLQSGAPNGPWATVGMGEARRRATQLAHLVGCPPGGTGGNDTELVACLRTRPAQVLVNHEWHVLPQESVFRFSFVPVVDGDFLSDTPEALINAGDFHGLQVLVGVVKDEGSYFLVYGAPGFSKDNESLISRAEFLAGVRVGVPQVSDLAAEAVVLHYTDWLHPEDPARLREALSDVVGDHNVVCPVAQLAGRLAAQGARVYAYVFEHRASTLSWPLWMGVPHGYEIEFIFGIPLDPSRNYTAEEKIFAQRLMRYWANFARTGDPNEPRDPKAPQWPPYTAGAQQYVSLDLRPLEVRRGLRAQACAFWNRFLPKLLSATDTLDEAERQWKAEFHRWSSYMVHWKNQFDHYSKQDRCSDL

recombinant human AChE [4] = molecular target: T1, recombinant human AChE; assay: biochemical; settings: potency (IC50), Enzyme with microsomes
[5] = molecular target: AChE in neural stem cells (Homo sapiens, UniProt P22303); assay: cell-based
AChE in neural stem cells, sequence (P22303 32-614): as above

[6] = molecular target: AChE in SH-SY5Y spheroids (Homo sapiens, UniProt P22303); assay: cell-based; settings: potency (IC50)
AChE in SH-SY5Y spheroids, sequence (P22303 32-614): as above

recombinant human AChE [7] = molecular target: T1, recombinant human AChE; assay: biochemical; remark: listed apart in the source
recombinant human AChE [8] = molecular target: T1, recombinant human AChE; assay: biochemical; type: biochemical; settings: for AC50: AC50 (uM)
AChE in SH-SY5Y cells = AChE in SH-SY5Y cells (Homo sapiens, UniProt P22303); assay: cell-based
AChE in SH-SY5Y cells, sequence (P22303 32-614): as above

[9] = Neural stem cell spheroid (24 h)
[10] = Neural stem cell spheroid (48 h)
[11] = potency (IC50), SH-SY5Y cells monolayer
Wherever IR or R is given: key: Reversible (R); Irreversible (IR); ND, not detected in enzyme-based AChE inhibition assay from current study.

T1 sequence (P22303 32-614): as above

## O=C(Nc1cccc(C2=NCCN2)c1)Nc1cccc(C2=NCCN2)c1 [Imidocarb dipropionate, reference compound]
Recombinant human AChE [1]
  IC50: 25.7 ± 5.81 µM
Recombinant human AChE [2]
  CC-v2 (curve classes): 4
  Efficacy: 0
[3]; [9]
  IC50: 19.4 ± 2.22 µM
[3]; [10]
  IC50: 19.3 µM
Recombinant human AChE [4]
  IC50: 27.6 ± 5.16 µM
[5]
  IC50: 19.3 µM
[6]; SH-SY5Y spheroids (24 h)
  IC50: 6.56 ± 6.21 µM
[6]; SH-SY5Y spheroids (48 h)
  IC50: 7.41 ± 0.48 µM
Recombinant human AChE [7]
  CC-v2 (curve classes): -2.1
  Efficacy: -76.607
Recombinant human AChE [7]; IC50 (uM)
  IC50: 10.7 µM
Recombinant human AChE [7]; potency (IC50), Enzyme
  IC50: 18.5 ± 10.1 µM
Recombinant human AChE [8]
  IR or R: R
  AC50: 15.3 µM (2×) and 17.2 µM and 19.3 µM and 10.9 µM and 13.7 µM and 21.7 µM and 12.2 µM
AChE in SH-SY5Y cells
  CC-v2 (curve classes): -1.1
AChE in SH-SY5Y cells; IC50 (uM)
  IC50: 3.79 µM and 4.25 µM
AChE in SH-SY5Y cells; [11]
  IC50: 5.07 ± 0.64 µM

## CNC(=O)Oc1ccccc1C(C)C [Isoprocarb]
Recombinant human AChE [1]
  IC50: 9.21 ± 0.62 µM
Recombinant human AChE [2]
  CC-v2 (curve classes): -2.1
  Efficacy: -88.562
[3]
  potency (IC50), Neural stem cell spheroid (24 h): Inactive
[3]; [10]
  IC50: 39.6 µM
Recombinant human AChE [4]
  IC50: 8.53 ± 0.55 µM
[5]
  IC50: 21 ± 9.16 µM
[6]; SH-SY5Y spheroids (24 h)
  IC50: 5.45 ± 4.07 µM
[6]; SH-SY5Y spheroids (48 h)
  IC50: 12.5 µM
Recombinant human AChE [7]
  CC-v2 (curve classes): -1.1
  Efficacy: -91.575
Recombinant human AChE [7]; potency (IC50), Enzyme
  IC50: 6.55 ± 0.83 µM
Recombinant human AChE [8]
  IR or R: R
  AC50: 9.93 µM and 14 µM and 17.7 µM and 22.2 µM and 12.5 µM and 4.98 µM and 3.95 µM and 5.59 µM
AChE in SH-SY5Y cells
  CC-v2 (curve classes): -1.1
AChE in SH-SY5Y cells; IC50 (uM)
  IC50: 3.56 µM and 4.48 µM
AChE in SH-SY5Y cells; [11]
  IC50: 8.21 ± 0.55 µM

## CCOP(=S)(OCC)Oc1cc(-c2ccccc2)on1 [Isoxathion]
Recombinant human AChE [1]
  IC50: 85.3 ± 5.56 µM
Recombinant human AChE [2]
  CC-v2 (curve classes): -1.1
  Efficacy: -99.076
[3]; [9]
  IC50: 0.73 µM
[3]; [10]
  IC50: 1.68 µM
Recombinant human AChE [4]
  IC50: 2.11 µM
[5]
  IC50: 6.1 µM
[6]; SH-SY5Y spheroids (24 h)
  IC50: 27 µM
[6]; SH-SY5Y spheroids (48 h)
  IC50: 17.7 µM
Recombinant human AChE [7]
  CC-v2 (curve classes): -3
  Efficacy: -107.392
Recombinant human AChE [7]; potency (IC50), Enzyme
  IC50: 44.4 µM
Recombinant human AChE [8]
  AC50: 55.9 µM (2×) and 49.8 µM (3×) and 44.4 µM (2×)
AChE in SH-SY5Y cells
  CC-v2 (curve classes): -2.1
AChE in SH-SY5Y cells; IC50 (uM)
  IC50: 63.3 µM and 79.6 µM
AChE in SH-SY5Y cells; [11]
  IC50: 17 µM

## COc1ccc(C(=O)NCc2ccc(OCCN(C)C)cc2)cc1OC.Cl [Itopride hydrochloride, reference compound]
Recombinant human AChE [1]
  IC50: 22.6 ± 1.53 µM
Recombinant human AChE [2]
  CC-v2 (curve classes): 4
  Efficacy: 0
[3]; [9]
  IC50: 23.5 ± 3.23 µM
[3]; [10]
  IC50: 14.2 µM
Recombinant human AChE [4]
  IC50: 19.4 ± 2.22 µM
[5]
  IC50: 11.2 ± 3.11 µM
[6]; SH-SY5Y spheroids (24 h)
  IC50: 4.44 ± 3.53 µM
[6]; SH-SY5Y spheroids (48 h)
  IC50: 11.2 ± 3.12 µM
Recombinant human AChE [7]
  CC-v2 (curve classes): -2.2
  Efficacy: -69.798
Recombinant human AChE [7]; IC50 (uM)
  IC50: 27.5 µM
Recombinant human AChE [7]; potency (IC50), Enzyme
  IC50: 12.7 ± 0.85 µM
Recombinant human AChE [8]
  IR or R: R
  AC50: 15.3 µM (3×) and 21.7 µM and 17.2 µM and 19.3 µM
AChE in SH-SY5Y cells
  CC-v2 (curve classes): -1.1 and -2.1
AChE in SH-SY5Y cells; IC50 (uM)
  IC50: 6.92 µM and 4.9 µM and 5.5 µM
AChE in SH-SY5Y cells; [11]
  IC50: 7.68 µM

## COP(=S)(Oc1cc(Cl)c(Br)cc1Cl)c1ccccc1 (stereo not drawn) [Leptophos]
Recombinant human AChE [1]
  IC50: 48 ± 3.13 µM
Recombinant human AChE [2]
  CC-v2 (curve classes): -1.1
  Efficacy: -83.877
[3]; [9]
  IC50: 36.5 µM
[3]; [10]
  IC50: 69 µM
Recombinant human AChE [4]
  IC50: 2.31 µM
[5]
  IC50: 58.1 µM
[6]; SH-SY5Y spheroids (24 h)
  IC50: 54.6 µM
[6]; SH-SY5Y spheroids (48 h)
  IC50: 44.6 µM
Recombinant human AChE [7]
  CC-v2 (curve classes): -3
  Efficacy: -64.129
Recombinant human AChE [7]; potency (IC50), Enzyme
  IC50: 46.4 µM
Recombinant human AChE [8]
  AC50: 31.4 µM and 62.7 µM (3×) and 39.5 µM and 35.2 µM and 55.9 µM
AChE in SH-SY5Y cells
  CC-v2 (curve classes): -2.1
AChE in SH-SY5Y cells; IC50 (uM)
  IC50: 63.3 µM and 71 µM and 79.6 µM
AChE in SH-SY5Y cells; [11]
  IC50: 28 µM

## CCOC(=O)CC(SP(=O)(OC)OC)C(=O)OCC (stereo not drawn) [Malaoxon]
Recombinant human AChE [1]
  IC50: 4.62 ± 0.31 µM
Recombinant human AChE [2]
  CC-v2 (curve classes): -2.1
[3]; [9]
  IC50: 5.05 ± 3.3 µM
[3]; [10]
  IC50: 9.46 µM
Recombinant human AChE [4]
  IC50: 4.43 µM
[5]
  IC50: 5.86 ± 1.05 µM
[6]; SH-SY5Y spheroids (24 h)
  IC50: 4.09 ± 3.42 µM
[6]; SH-SY5Y spheroids (48 h)
  IC50: 3.95 µM
Recombinant human AChE [7]
  CC-v2 (curve classes): -1.1
Recombinant human AChE [7]; potency (IC50), Enzyme
  IC50: 1.46 µM
Recombinant human AChE [8]
  AC50: 22.2 µM (2×) and 9.93 µM and 7.89 µM and 25 µM and 8.85 µM (2×) and 5.59 µM and 11.1 µM
AChE in SH-SY5Y cells
  CC-v2 (curve classes): -1.1
AChE in SH-SY5Y cells; IC50 (uM)
  IC50: 3.56 µM and 3.02 µM and 3.17 µM and 2.83 µM
AChE in SH-SY5Y cells; [11]
  IC50: 3.05 ± 0.52 µM
